From patent US4524075A, “Pharmaceutical formulations containing pseudomonic acid” (Beecham Group p.l.c., priority 1982, dated 1985)

Legend:
[1] = Stability test: storage at 30° or 37° C. for 12 months, amount of therapeutic agent remaining assayed at 2 and 12 months; assay type: physicochemical
[2] = Stability in the presence of acid or of polyethylene glycol (general statements, no test described); assay type: physicochemical
[3] = cited from earlier work

## C/C(=C\C(=O)OCCCCCCCCC(=O)O)C[C@@H]1OC[C@H](C[C@@H]2O[C@H]2[C@@H](C)[C@H](C)O)[C@@H](O)[C@H]1O [Pseudomonic acid]
[1]
  % remaining after 2 months at 37° C.: Dec
  % remaining after 12 months at 30° C.: Dec
  % remaining after 12 months at 37° C.: Dec
[1]; storage, 1460 h
  % remaining after 2 months at 30° C.: 78%
[2]
  stability in the presence of polyethylene glycol, or a derivative thereof: improved stability
[3]
  stability in the presence of acid: tend to undergo a rearrangement reaction in the presence of acid
